Here are results for 2 compounds from patent US20210284621A1 (priority 2018, published 2021).

Data set [1] can be described thus: Brain concentration and brain/plasma ratio after PO dose in mice. It is filed as in vivo. As to conditions: mouse, 10 mg/kg PO, male C57BL/6 mice; for Kp at 4 h / Kp at 10 h: brain/plasma; for concentration at 4 h / concentration at 10 h / concentration at 24 h: brain. As to the method: Male C57BL/6 mice were administered an oral (P0) dose of 10 mg/kg of the indicated compound. The brain/plasma ratios of the indicated compounds were determined by standard methods, the results of which are provided in Table 11.

A further data set concerns LPS-induced PBMCs. Put plainly: Inflammatory cytokine release from LPS-induced PBMCs (Luminex). The format is cell-based, human. As to conditions: fold change from LPS-treated PBMCs, compounds 10 μM (DEX 1 μg/ml) 2 h, then LPS 0.1 μg/ml 24 h, negative = reduced. The method in brief:
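Human PBMCs from healthy donors pretreated 2 hours with compound at 10 μM (triplicate), then stimulated with 0.1 μg/ml LPS for 24 hours. Supernatant cytokines measured by magnetic Luminex; values given as fold change versus LPS-treated PBMCs, negative meaning reduction; cytotoxicity also assessed.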

Where [2] appears, read: OOR = out of standard curve range.

As to `CCCCCCC(C)(C)c1cc(O)c2c(c1)OC(C)(C)[C@@H]1CC=C(C(=O)OC(C)C)C[C@@H]21` [Compound 29, Isopropyl (6aR,10aR)-1-hydroxy-6,6-dimethyl-3-(2-methyloctan-2-yl)-6a,7,10,10a-tetrahydro-6H-benzo[c]chromene-9-carboxylate], in data set [1], the Kp at 4 h was 0.00637, the Kp at 10 h stood at 0.106, the concentration at 4 h stood at 1.72 ng/g and the concentration at 10 h was 7.93 ng/g. For the same compound, the concentration at 24 h in data set [1] came out at 0 ng/g.
With `CCCCCCC(C)(C)c1cc(O)c2c(c1)OC(C)(C)[C@@H]1CC=C(C(=O)NC(C)(C)CCO)C[C@@H]21` [Compound 15, (6aR,10aR)-1-Hydroxy-N-(4-hydroxy-2-methylbutan-2-yl)-6,6-dimethyl-3-(2-methyloctan-2-yl)-6a,7,10,10a-tetrahydro-6H-benzo[c]chromene-9-carboxamide], in the data set with LPS-induced PBMCs, the IL17A was −3.1 fold change, the IL-1β is reported as −5.9 fold change, the IL-4 is reported as −2.7 fold change and the IL-6 is given as −107.7 fold change. For the same compound, in the data set on LPS-induced PBMCs, the IL-8 is −2.4 fold change, the IL-10 is recorded as −299.9 fold change, the MCP-1 is recorded as −213.2 fold change and the TNFα was −75.9 fold change. Moreover, in the data set with LPS-induced PBMCs (setting [2]), the “IL-12 (p70)” value is on record as “OOR” and the L-31 entry is “OOR”. In data set [1], the Kp at 4 h was determined as 0.139, the Kp at 10 h was determined as 0.331, the concentration at 4 h came out at 107 ng/g and the concentration at 10 h worked out at 50.4 ng/g. Further, the concentration at 24 h in data set [1] is 0 ng/g.

As a reminder, the Kp is tissue or fluid exposure divided by exposure in the circulation.
